Assay results reported in US8691222B2, “NLRR-1 antagonists and uses thereof” (Genentech, Inc., priority 2007, dated 2014).

Assays:
NCI-H2009 cells [1] = details: NCI-H2009, characterized as sensitive to erlotinib; cited from earlier work
[2] = tested on: lung tumor cell lines which endogenously express NLRR-1; details: several lung tumor cell lines classified as resistant to erlotinib; cited from earlier work
[3] = tested on: cell lines that endogenously expressed NLRR-1; experiment: Apoptosis assay with starvation (caspase 3/7) after siRNA knockdown; type: cell-based, human; details: vs non-targeting control RNA
Protocol: The NLRR-1 siRNA duplex was designed and synthesized by Dharmacon (Lafayette, Colo.). The sense sequence is […] (SEQ ID NO: 11) and the antisense sequence is 5′-[…] (SEQ ID NO: 12). NCI-H2009, NCI-H647, NCI-H226, and SK-MES-1 cells were seeded at 2830/cm^2 and NCI-H520 and NCI-H1781 cells were seeded at 5660/cm^2. 100 nM of siRNA was transfected with DharmaFECT 4 for 6 to 8 hours before the transfectant was replaced with fresh media. A non-targeting siRNA sequence (Dharmacon) was used as a negative control. RT-PCR was performed on RNA extracted from 60 mm plates using RNeasy (Qiagen, Valencia, Calif.) per manufacturer's instructions. […] Cell growth was assessed after 4 days by Cell Titer Glo (Promega, Madison, Wis.) per manufacturer's instructions. […] For apoptosis assay with starvation, cells were starved in Optimem I. For both assays, cell viability was measured with Cell Titer Glo (Promega, Madison, Wis.) and apoptosis was measured with Caspase-Glo 3/7 (Promega) after 2 days. […]
EGFR pathway activation in tumor cells has consequences for many important cellular processes, including cell survival. […] NLRR-1 was knocked down using siRNA, cells were subjected to starvation to promote apoptosis, and apoptosis was measured by caspase 3/7 activity and normalized for viable cells (FIG. 6C).

NCI-H520 cells = experiment: Apoptosis and erlotinib synergy assay, NCI-H520; type: cell-based, human; details: NLRR-1 siRNA knockdown plus increasing concentrations of erlotinib; NCI-H520, resistant; FIG. 8D
Protocol: (§1) The NLRR-1 siRNA duplex was designed and synthesized by Dharmacon (Lafayette, Colo.). The sense sequence is […] (SEQ ID NO: 11) and the antisense sequence is 5′-[…] (SEQ ID NO: 12). NCI-H2009, NCI-H647, NCI-H226, and SK-MES-1 cells were seeded at 2830/cm^2 and NCI-H520 and NCI-H1781 cells were seeded at 5660/cm^2. 100 nM of siRNA was transfected with DharmaFECT 4 for 6 to 8 hours before the transfectant was replaced with fresh media. A non-targeting siRNA sequence (Dharmacon) was used as a negative control. RT-PCR was performed on RNA extracted from 60 mm plates using RNeasy (Qiagen, Valencia, Calif.) per manufacturer's instructions. EGFR flow cytometry and immunoblot: After siRNA transfection for 24 hours, cells were harvested and stained with α-EGFR antibody conjugated to PE (BD Pharmingen) and propidium iodide for flow cytometry analysis. 10,000 events were collected and cells were gated on FSC, SSC, and PI. For immunoblot analysis, lysates were immunoblotted with α-EGFR (MBL) or α-βtubulin (Santa Cruz Biotechnology). […] Cell growth was assessed after 4 days by Cell Titer Glo (Promega, Madison, Wis.) per manufacturer's instructions. […] For apoptosis assay with starvation, cells were starved in Optimem I. For both assays, cell viability was measured with Cell Titer Glo (Promega, Madison, Wis.) and apoptosis was measured with Caspase-Glo 3/7 (Promega) after 2 days. […]

[4] = tested on: SK-MES1 lung carcinoma cell line; experiment: Proliferation assay (Cell Titer Glo) after siRNA knockdown, SK-MES1; type: cell-based, human; details: 100 nM siRNA; 4 days; SK-MES1, does not express NLRR-1
Protocol: as §1

[5] = tested on: SK-MES cells (NLRR-1-negative); experiment: Apoptosis and erlotinib synergy assay, SK-MES; type: cell-based, human; details: NLRR-1 siRNA knockdown plus increasing concentrations of erlotinib, erlotinib-sensitive, FIG. 8F
Protocol: as §1

NCI-H647 cells = experiment: Apoptosis and erlotinib synergy assay, NCI-H647; type: cell-based, human; details: NLRR-1 siRNA knockdown plus increasing concentrations of erlotinib; NCI-H647, erlotinib-resistant; FIG. 8A
Protocol: as §1

NCI-H2009 cells [6] = experiment: Apoptosis and erlotinib synergy assay, NCI-H2009; type: cell-based, human; details: NLRR-1 siRNA knockdown plus increasing concentrations of erlotinib; NCI-H2009, erlotinib-sensitive; FIG. 8E
Protocol: as §1

NCI-H226 cells = experiment: Apoptosis and erlotinib synergy assay, NCI-H226; type: cell-based, human; details: NLRR-1 siRNA knockdown plus increasing concentrations of erlotinib; NCI-H226, resistant; FIG. 8C
Protocol: as §1

[7] = tested on: EGFR in NCI-H2009, NCI-H226, NCI-H647 cells; experiment: EGFR flow cytometry and immunoblot after NLRR-1 siRNA knockdown; type: cell-based, human
Protocol: as §1

NCI-H1781 cells = experiment: Apoptosis and erlotinib synergy assay, NCI-H1781; type: cell-based, human; details: NLRR-1 siRNA knockdown plus increasing concentrations of erlotinib; NCI-H1781, resistant; FIG. 8B
Protocol: as §1

Compound | IC50 (NCI-H2009 cells [1]) [µM] | IC50 [2] [µM] | apoptosis (caspase 3/7 activity normalized for viable cells) [3] | apoptosis (caspase 3/7 activity) in presence of erlotinib (NCI-H520 cells) | proliferation (ATP-based cell viability) [4] | apoptosis (caspase 3/7 activity) in presence of erlotinib [5] | apoptosis (caspase 3/7 activity) in presence of erlotinib (NCI-H647 cells) | apoptosis (caspase 3/7 activity) in presence of erlotinib (NCI-H2009 cells [6]) | apoptosis (caspase 3/7 activity) in presence of erlotinib (NCI-H226 cells) | total EGFR protein level ([7]; NLRR-1 depleted vs control-depleted cells, immunoblot) | surface EGFR protein level ([7]; siRNA knockdown 24 hours, NCI-H2009, NCI-H226, NCI-H647, vs non-targeting siRNA, flow cytometry) | apoptosis (caspase 3/7 activity) in presence of erlotinib (NCI-H1781 cells)
C#Cc1cccc(Nc2ncnc3cc(OCCOC)c(OCCOC)cc23)c1 [erlotinib] | ≤ 2 | ≥ 8 |  |  |  |  |  |  |  |  |  | 
NLRR-1 siRNA: siRNA duplex by Dharmacon; sense GCCAGAACCUGAAAUUUACUU (SEQ ID NO: 11), antisense 5′-PGUAAAUUUCAGGUUCUGGCUU (SEQ ID NO: 12) (5' phosphate on antisense, further chemistry not given here) |  |  | increase in apoptosis | possibly also, to a lesser degree | no significant defect in proliferation | did not show any increase in apoptosis | significant increase in sensitivity | did not show any increased apoptosis | synergy | unchanged | increase in surface EGFR | synergy
